Columns and labels:
Format in all cases: in vivo
Spodoptera litura = assay: Pesticidal test against Spodoptera litura (cabbage leaf dip); details: foliar, 144 h, concentration 1 ppm, 2-stage larvae, examined after 6 days, 25° C., read-out: pesticidal rate
How it was run: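 Cabbage leaf pieces dipped 30 seconds in compound solution at a predetermined concentration and air-dried, then offered to second-stage larvae, five per group in two replicates. Held at 25° C. Living and dead larvae counted after 6 days.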

Plutella xylostella = assay: Pesticidal test against Plutella xylostella (cabbage leaf dip); details: foliar, 144 h, concentration 1 ppm, 2-stage larvae, examined after 6 days, 25° C., read-out: pesticidal rate
How it was run: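 Second-stage larvae (5 per group, two replicates) were released onto air-dried cabbage leaf discs that had been immersed for 30 seconds in compound solution at a set concentration. Mortality was scored after 6 days at 25° C.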

Adoxophyes honmai = assay: Pesticidal test against Adoxophyes honmai (artificial feed dip); details: 144 h, 2-stage larvae, examined after 6 days, 25° C., read-out: pesticidal rate; for pest or weed control at 10 ppm: concentration 10 ppm; for pest or weed control at 1 ppm: concentration 1 ppm
How it was run: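 Second-instar larvae, five per group in duplicate, were released onto air-dried feed slices previously immersed for 30 s in compound solution at a set concentration. Mortality was scored on day 6 at 25° C.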

Choristoneura magnanima = assay: Pesticidal test against Choristoneura magnanima (artificial feed dip); details: 144 h, 2-stage larvae, examined after 6 days, 25° C., read-out: pesticidal rate; for pest or weed control at 1 ppm: concentration 1 ppm
How it was run: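 Second-stage larvae, five per group in duplicate, fed artificial diet that had been immersed 30 s in test solution at a predetermined concentration and air-dried. Mortality scored at day 6, 25° C.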

Helicoverpa armigera = assay: Pesticidal test against Helicoverpa armigera (cabbage leaf disk dip); details: foliar, 72 h, concentration 1 ppm, 2-stage larvae, examined after 3 days, 25° C., read-out: pesticidal rate
How it was run: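 Cabbage leaf disks were dipped for 30 s in test solution at a set concentration and air-dried. Second-instar larvae were placed one per hole and held at 25 °C, with live and dead counts taken after 3 days. Five larvae per group were tested in two replicates.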

Blattella germanica = assay: Pesticidal test against Blattella germanica (petri dish dry film); details: 24 h, concentration 100 ppm, female adults, examined after 1 day, 25° C., read-out: pesticidal rate
Method: Pesticidal Test against Blattella germanica
1 ml of an acetone solution in which a test compound had been prepared at a predetermined concentration was added dropwise to a petri dish having a diameter of 9 cm, and air-dried, and then the female adults of Blattella germanica were released and the petri dish was capped. They were left to stand in a thermostatic chamber at 25° C., and the numbers of the living pests and the dead pests were examined after 1 day. The test was carried out with five larvae per group in two replicates.

Laodelphax striatellus = assay: Pesticidal test against Laodelphax striatellus (rice seedling spray); details: 144 h, concentration 100 ppm, 3-stage larvae, examined after 6 days, 25° C., read-out: pesticidal rate
How it was run: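 Rice seedlings sprayed with 2.5 ml acetone solution of compound at a predetermined concentration, air-dried, then infested with third-stage Laodelphax striatellus larvae in capped water-containing tubes at 25 °C. Living and dead insects counted after 6 days; ten larvae per group, two replicates.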

Musca domestica = assay: Pesticidal test against Musca domestica (petri dish dry film); details: 24 h, concentration 100 ppm, female adults, examined after 1 day, 25° C., read-out: pesticidal rate
How it was run: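 Female adult houseflies were confined at 25° C in capped 9 cm petri dishes coated with an air-dried film from 1 ml acetone solution of compound (predetermined concentration). Mortality was scored 1 day later, two replicates of five per group.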

N#Cc1ccc(C(=O)Nc2cccc(C(=O)Nc3c(Br)cc(C(F)(C(F)(F)F)C(F)(F)C(F)(F)F)cc3C(F)(F)F)c2)cc1 (stereo not shown) [6-367]
≥ 70%: pest or weed control at 1 ppm (Spodoptera litura) | pest or weed control at 1 ppm (Plutella xylostella) | pest or weed control at 10 ppm (Adoxophyes honmai) | pest or weed control at 1 ppm (Choristoneura magnanima) | pest or weed control at 1 ppm (Helicoverpa armigera) | pest or weed control at 100 ppm (Blattella germanica)

O=C(Nc1c(Br)cc(C(F)(C(F)(F)F)C(F)(F)C(F)(F)F)cc1C(F)(F)F)c1cccc(NC(=O)c2cccnc2Cl)c1 (stereo not shown) [6-382]
≥ 70%: pest or weed control at 1 ppm (Spodoptera litura) | pest or weed control at 1 ppm (Plutella xylostella) | pest or weed control at 1 ppm (Adoxophyes honmai) | pest or weed control at 10 ppm (Choristoneura magnanima; concentration 10 ppm) | pest or weed control at 1 ppm (Helicoverpa armigera) | pest or weed control at 100 ppm (Laodelphax striatellus) | pest or weed control at 100 ppm (Musca domestica) | pest or weed control at 100 ppm (Blattella germanica)

O=C(Nc1cccc(C(=O)Nc2c(I)cc(C(F)(C(F)(F)F)C(F)(F)F)cc2C(F)(F)F)c1)c1cccc(F)c1 [6-426]
≥ 70%: pest or weed control at 1 ppm (Spodoptera litura) | pest or weed control at 1 ppm (Plutella xylostella) | pest or weed control at 10 ppm (Adoxophyes honmai) | pest or weed control at 1 ppm (Choristoneura magnanima) | pest or weed control at 1 ppm (Helicoverpa armigera) | pest or weed control at 100 ppm (Musca domestica) | pest or weed control at 100 ppm (Blattella germanica)

O=C(Nc1cccc(C(=O)Nc2c(I)cc(C(F)(C(F)(F)F)C(F)(F)F)cc2C(F)(F)F)c1)c1ccc(F)cc1 [6-427]
≥ 70%: pest or weed control at 1 ppm (Spodoptera litura) | pest or weed control at 1 ppm (Plutella xylostella) | pest or weed control at 1 ppm (Adoxophyes honmai) | pest or weed control at 1 ppm (Choristoneura magnanima) | pest or weed control at 1 ppm (Helicoverpa armigera) | pest or weed control at 100 ppm (Laodelphax striatellus) | pest or weed control at 100 ppm (Musca domestica) | pest or weed control at 100 ppm (Blattella germanica)

O=C(Nc1cccc(C(=O)Nc2c(Br)cc(C(F)(C(F)(F)F)C(F)(F)F)cc2Br)c1F)c1cccc(F)c1 [6-1106]
≥ 70%: pest or weed control at 1 ppm (Spodoptera litura) | pest or weed control at 1 ppm (Plutella xylostella) | pest or weed control at 1 ppm (Adoxophyes honmai) | pest or weed control at 1 ppm (Choristoneura magnanima) | pest or weed control at 1 ppm (Helicoverpa armigera) | pest or weed control at 100 ppm (Laodelphax striatellus) | pest or weed control at 100 ppm (Blattella germanica)

N#Cc1cccc(C(=O)Nc2cccc(C(=O)Nc3c(I)cc(C(F)(C(F)(F)F)C(F)(F)C(F)(F)F)cc3I)c2F)c1 (stereo not shown) [6-1358]
≥ 70%: pest or weed control at 1 ppm (Spodoptera litura) | pest or weed control at 1 ppm (Plutella xylostella) | pest or weed control at 1 ppm (Adoxophyes honmai) | pest or weed control at 1 ppm (Choristoneura magnanima) | pest or weed control at 1 ppm (Helicoverpa armigera) | pest or weed control at 100 ppm (Laodelphax striatellus) | pest or weed control at 100 ppm (Musca domestica) | pest or weed control at 100 ppm (Blattella germanica)

O=C(Nc1cccc(C(=O)Nc2c(Br)cc(C(F)(C(F)(F)F)C(F)(F)F)cc2C(F)(F)F)c1F)c1ccc(F)cc1 [6-1577]
≥ 70%: pest or weed control at 1 ppm (Spodoptera litura) | pest or weed control at 1 ppm (Plutella xylostella) | pest or weed control at 10 ppm (Adoxophyes honmai) | pest or weed control at 1 ppm (Choristoneura magnanima) | pest or weed control at 1 ppm (Helicoverpa armigera) | pest or weed control at 100 ppm (Laodelphax striatellus) | pest or weed control at 100 ppm (Musca domestica) | pest or weed control at 100 ppm (Blattella germanica)

O=C(Nc1c(Br)cc(C(F)(C(F)(F)F)C(F)(F)F)cc1C(F)(F)F)c1cccc(NC(=O)c2c(F)cccc2F)c1F [6-1596]
≥ 70%: pest or weed control at 1 ppm (Spodoptera litura) | pest or weed control at 1 ppm (Plutella xylostella) | pest or weed control at 1 ppm (Adoxophyes honmai) | pest or weed control at 1 ppm (Choristoneura magnanima) | pest or weed control at 1 ppm (Helicoverpa armigera) | pest or weed control at 100 ppm (Laodelphax striatellus) | pest or weed control at 100 ppm (Musca domestica) | pest or weed control at 100 ppm (Blattella germanica)

O=C(Nc1cccc(C(=O)Nc2c(I)cc(C(F)(C(F)(F)F)C(F)(F)F)cc2C(F)(F)F)c1F)c1ccccc1 [6-1730]
≥ 70%: pest or weed control at 1 ppm (Spodoptera litura) | pest or weed control at 1 ppm (Plutella xylostella) | pest or weed control at 1 ppm (Adoxophyes honmai) | pest or weed control at 1 ppm (Choristoneura magnanima) | pest or weed control at 1 ppm (Helicoverpa armigera) | pest or weed control at 100 ppm (Laodelphax striatellus) | pest or weed control at 100 ppm (Musca domestica) | pest or weed control at 100 ppm (Blattella germanica)

O=C(Nc1cccc(C(=O)Nc2c(I)cc(C(F)(C(F)(F)F)C(F)(F)F)cc2C(F)(F)F)c1F)c1cccc(F)c1 [6-1732]
≥ 70%: pest or weed control at 1 ppm (Spodoptera litura) | pest or weed control at 1 ppm (Plutella xylostella) | pest or weed control at 1 ppm (Adoxophyes honmai) | pest or weed control at 1 ppm (Choristoneura magnanima) | pest or weed control at 1 ppm (Helicoverpa armigera) | pest or weed control at 100 ppm (Laodelphax striatellus) | pest or weed control at 100 ppm (Musca domestica) | pest or weed control at 100 ppm (Blattella germanica)

N#Cc1cccc(C(=O)Nc2cccc(C(=O)Nc3c(I)cc(C(F)(C(F)(F)F)C(F)(F)F)cc3C(F)(F)F)c2F)c1 [6-1750]
≥ 70%: pest or weed control at 1 ppm (Spodoptera litura) | pest or weed control at 1 ppm (Plutella xylostella) | pest or weed control at 1 ppm (Adoxophyes honmai) | pest or weed control at 1 ppm (Choristoneura magnanima) | pest or weed control at 1 ppm (Helicoverpa armigera) | pest or weed control at 100 ppm (Laodelphax striatellus) | pest or weed control at 100 ppm (Musca domestica) | pest or weed control at 100 ppm (Blattella germanica)

N#Cc1ccc(C(=O)Nc2cccc(C(=O)Nc3c(I)cc(C(F)(C(F)(F)F)C(F)(F)F)cc3C(F)(F)F)c2F)cc1 [6-1751]
≥ 70%: pest or weed control at 1 ppm (Spodoptera litura) | pest or weed control at 1 ppm (Plutella xylostella) | pest or weed control at 1 ppm (Choristoneura magnanima) | pest or weed control at 1 ppm (Helicoverpa armigera) | pest or weed control at 100 ppm (Laodelphax striatellus) | pest or weed control at 100 ppm (Musca domestica) | pest or weed control at 100 ppm (Blattella germanica)

O=C(Nc1cccc(C(=O)Nc2c(I)cc(C(F)(C(F)(F)F)C(F)(F)C(F)(F)F)cc2C(F)(F)F)c1F)c1ccc(F)cc1 (stereo not shown) [6-1811]
≥ 70%: pest or weed control at 1 ppm (Spodoptera litura) | pest or weed control at 1 ppm (Plutella xylostella) | pest or weed control at 1 ppm (Adoxophyes honmai) | pest or weed control at 1 ppm (Choristoneura magnanima) | pest or weed control at 1 ppm (Helicoverpa armigera) | pest or weed control at 100 ppm (Laodelphax striatellus) | pest or weed control at 100 ppm (Musca domestica) | pest or weed control at 100 ppm (Blattella germanica)

CN(C(=O)c1cccnc1Cl)c1cccc(C(=O)Nc2c(Br)cc(C(F)(C(F)(F)F)C(F)(F)C(F)(F)F)cc2C(F)(F)F)c1 (stereo not shown) [7-382]
≥ 70%: pest or weed control at 1 ppm (Spodoptera litura) | pest or weed control at 1 ppm (Plutella xylostella) | pest or weed control at 1 ppm (Adoxophyes honmai) | pest or weed control at 1 ppm (Choristoneura magnanima) | pest or weed control at 1 ppm (Helicoverpa armigera) | pest or weed control at 100 ppm (Laodelphax striatellus) | pest or weed control at 100 ppm (Musca domestica) | pest or weed control at 100 ppm (Blattella germanica)

CN(C(=O)c1ccc(Cl)nc1)c1cccc(C(=O)Nc2c(Br)cc(C(F)(C(F)(F)F)C(F)(F)C(F)(F)F)cc2C(F)(F)F)c1 (stereo not shown) [7-389]
≥ 70%: pest or weed control at 1 ppm (Spodoptera litura) | pest or weed control at 1 ppm (Plutella xylostella) | pest or weed control at 1 ppm (Choristoneura magnanima) | pest or weed control at 1 ppm (Helicoverpa armigera) | pest or weed control at 100 ppm (Laodelphax striatellus) | pest or weed control at 100 ppm (Musca domestica) | pest or weed control at 100 ppm (Blattella germanica)

CN(C(=O)c1cccc(C#N)c1)c1cccc(C(=O)Nc2c(I)cc(C(F)(C(F)(F)F)C(F)(F)F)cc2C(F)(F)F)c1 [7-444]
≥ 70%: pest or weed control at 1 ppm (Spodoptera litura) | pest or weed control at 1 ppm (Plutella xylostella) | pest or weed control at 10 ppm (Adoxophyes honmai) | pest or weed control at 1 ppm (Choristoneura magnanima) | pest or weed control at 1 ppm (Helicoverpa armigera) | pest or weed control at 100 ppm (Laodelphax striatellus) | pest or weed control at 100 ppm (Musca domestica) | pest or weed control at 100 ppm (Blattella germanica)

CN(C(=O)c1ccccc1)c1cccc(C(=O)Nc2c(I)cc(C(F)(C(F)(F)F)C(F)(F)C(F)(F)F)cc2C(F)(F)F)c1 (stereo not shown) [7-502]
≥ 70%: pest or weed control at 1 ppm (Spodoptera litura) | pest or weed control at 1 ppm (Plutella xylostella) | pest or weed control at 1 ppm (Adoxophyes honmai) | pest or weed control at 1 ppm (Choristoneura magnanima) | pest or weed control at 1 ppm (Helicoverpa armigera) | pest or weed control at 100 ppm (Blattella germanica)

CN(C(=O)c1ccc(F)cc1)c1cccc(C(=O)Nc2c(I)cc(C(F)(C(F)(F)F)C(F)(F)C(F)(F)F)cc2C(F)(F)F)c1 (stereo not shown) [7-505]
≥ 70%: pest or weed control at 1 ppm (Spodoptera litura) | pest or weed control at 1 ppm (Plutella xylostella) | pest or weed control at 1 ppm (Adoxophyes honmai) | pest or weed control at 1 ppm (Choristoneura magnanima) | pest or weed control at 1 ppm (Helicoverpa armigera) | pest or weed control at 100 ppm (Blattella germanica)

CN(C(=O)c1ccc(F)cc1)c1cccc(C(=O)Nc2c(Br)cc(C(F)(C(F)(F)F)C(F)(F)F)cc2Br)c1F [7-1107]
≥ 70%: pest or weed control at 1 ppm (Spodoptera litura) | pest or weed control at 1 ppm (Plutella xylostella) | pest or weed control at 1 ppm (Choristoneura magnanima) | pest or weed control at 1 ppm (Helicoverpa armigera) | pest or weed control at 100 ppm (Laodelphax striatellus) | pest or weed control at 100 ppm (Musca domestica) | pest or weed control at 100 ppm (Blattella germanica)

CN(C(=O)c1cccc(C#N)c1)c1cccc(C(=O)Nc2c(Br)cc(C(F)(C(F)(F)F)C(F)(F)F)cc2C(F)(F)F)c1F [7-1594]
≥ 70%: pest or weed control at 1 ppm (Spodoptera litura) | pest or weed control at 1 ppm (Plutella xylostella) | pest or weed control at 1 ppm (Adoxophyes honmai) | pest or weed control at 1 ppm (Choristoneura magnanima) | pest or weed control at 1 ppm (Helicoverpa armigera) | pest or weed control at 100 ppm (Laodelphax striatellus) | pest or weed control at 100 ppm (Blattella germanica)
